Assay results taken from the METLIN SMRT retention time set (Domingo-Almenara et al. 2019).

Assay: gradient 5% acetonitrile 3 min, to 50% in 2 min, to 85% in 15 min, held 3 min, 100 µL/min
Conditions: column: Zorbax Extend-C18 2.1 x 50 mm; eluents: water / acetonitrile, 0.1% formic acid
In short: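 Using water and acetonitrile that each contained 0.1% formic acid, mixtures of ~100 pure standards were separated at 100 μL/min on a Zorbax Extend-C18 column (2.1 × 50 mm, 1.8 μm). The HPLC fed a quadrupole time-of-flight mass spectrometer working in positive and negative ionization mode, with dead and dwell volumes of 40 μL and 900 μL. Data were acquired over 3 months. Retention time was read from computationally picked adduct peaks after manual inspection of each.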

RP-LC retention time [s] | Structure (SMILES)
797 | CCn1cnc(S(=O)(=O)N2CCC(C(=O)Nc3cc(C)cc(C)c3)CC2)c1
796 | O=C(c1ccccc1Cl)N1CCN(S(=O)(=O)c2cc3c4c(c2)CCC(=O)N4CCC3)CC1
924 | Cn1nnc2ccc(-c3noc(COc4ccc(F)cc4)n3)cc21
581 | CCCN1CCN(c2ncc3c(n2)CCN(Cc2ccc(OC(C)C)cc2)C3)CC1
845 | CCOC(=O)c1ccc(N2C=C(C(=O)N3CCCC3)S(=O)(=O)c3ccc(F)cc32)cc1
873 | CC(=O)Nc1cccc(-c2nc(-c3ccc4c(c3)oc(=O)n4C(C)C)no2)c1C
628 | Cc1nn(-c2ccccc2)c2c1N(CCCC(=O)NCc1ccc(N(C)C)cc1)C(=O)CS2
1110 | O=S(=O)(c1ccc(-c2noc(-c3ccc(F)c(F)c3)n2)cc1)N1CCOCC1
766 | CCN1CCn2cc(S(=O)(=O)Nc3ccc(Cl)cc3)cc2C1=O
1020 | Cn1cc(-c2nc(C(=O)Nc3cccc(F)c3)cs2)c2cccnc21
841 | Cc1cc(NC(=O)C2CCC2)nn1Cc1ccccc1
703 | CC(=O)Oc1ccc(OC(C)=O)c2c1CC1(C)OC1(C)C2 (stereo not given)
780 | COc1ccc(-c2cn3c(CC(=O)N4CCN(c5ccccc5F)CC4)csc3n2)cc1OC
576 | CC(C(=O)NCc1nc2ccccc2[nH]1)n1nc(-c2cccs2)ccc1=O (stereo not given)
678 | Cc1cc(S(=O)(=O)[C@H]2CS(=O)(=O)C[C@@H]2N2CCN(Cc3ccccc3)CC2)ccc1F
629 | O=C(NCCN1CCCCC1)c1ccc2c(=O)n(-c3ccc(F)cc3)c(N3CCCC3)nc2c1
1010 | Cc1[nH]nc(-c2c(C)sc(C)c2S(=O)(=O)N2CCN(c3ccccc3F)CC2)c1C
1010 | CCCCOc1ccc(-c2cc3c4nnc(CCC(=O)NCc5ccccc5C)n4ccn3n2)cc1
897 | O=C(Cn1cccc1-c1nnc(C2CCC2)o1)Nc1ccc(F)cc1
671 | Cc1cc(C)c2c(N3CCCC3)nc(C(=O)Nc3ccccc3C)nc2n1
713 | O=C(Nc1ccc(F)cc1F)c1ccc2ncsc2c1
752 | O=c1c2c(CO)c(-c3ccccc3)nn2ccn1CCOc1ccccc1
860 | COc1cccc2cc(C(=O)Nc3nnc(Cc4ccc(Cl)s4)o3)oc12

RP-LC retention time [s] | Structure (SMILES)
574 | CN(C)CCNC(=O)C1CCN(c2nc3ccc(-c4cncnc4)nc3s2)CC1
710 | CCC(=O)Nc1cc2c(cc1S(=O)(=O)c1ccccc1)n(C)c(=O)n2C
533 | Cc1ncsc1CN1CCCC(n2c(C)cnc2-c2ccncc2)C1 (stereo not given)
626 | Cc1[nH]c(C(=O)N2CCC(CC(=O)NCCN3CCCCCC3)CC2)c(C)c1C
671 | CC(C)(C)n1nnnc1C1CC2(CCOCC2)C(=O)N1Cc1ccc(F)cc1Cl (stereo not given)
836 | Cc1cc2nn(CC(=O)Nc3ccc(F)c(Cl)c3)c(=O)n2c(N2CCCC2)n1
662 | O=c1[nH]cc(Cl)cc1Cl
676 | CCNC(=O)NC1CCN(c2nc3ccccc3n(C)c2=O)CC1
671 | Cc1oc(-c2[nH]ncc2C(=O)N(C)C)cc1S(=O)(=O)NCC(C)C
581 | CSc1cccc(Nc2c(C(=O)N3CCSCC3)cnc3nc(C)ccc23)c1
1160 | CO[C@@H](Cc1ccc(OCCc2nc(-c3ccccc3)oc2C)c2ccsc12)C(=O)O
686 | CCOc1ccc(-n2cc(C(=O)O)nn2)cc1
620 | Cc1nc2ccc(Cl)cn2c(=O)c1NC(=O)c1cccs1
767 | Cn1cc(C2=C(c3cn(CCCSC(=N)N)c4ccccc34)C(=O)NC2=O)c2ccccc21
1000 | COc1ccccc1C1(CNS(=O)(=O)c2ccc3c(c2)CCCC3)CCOCC1
591 | Cn1cnnc1SCCNC(=O)Cc1noc2ccccc12
729 | CCCN1C(=O)C2(NCCc3c2[nH]c2ccc(OC)cc32)c2cc(Br)ccc21 (stereo not given)
858 | CN(CCc1noc(-c2ccccc2)n1)C(=O)Nc1ccc(F)cc1F
709 | CN(C(=O)Cn1ccc2c(=O)n(C)c(=O)n(C)c21)c1cccc(Cl)c1
831 | CC1=C(c2ccc(F)cc2)S(=O)(=O)N=C1N1CCCN(C(=O)c2ccccc2C)CC1
684 | CC(C)NC(=O)c1ccc(-c2nc3cc(NS(=O)(=O)c4ccc(F)cc4)ccc3n2C)cc1
522 | O=C(NCCn1ncccc1=O)c1ccc(N2CCCC2)nn1
580 | O=c1[nH]c2ccc(NCc3ccc(F)cc3)cc2[nH]1

RP-LC retention time [s] | Structure (SMILES)
1030 | CCSc1nc2ccc(NS(=O)(=O)c3ccccc3Cl)cc2s1
678 | Cc1nc(-c2noc(-c3ccncc3)n2)cn1CC(=O)N1CCc2ccccc21
836 | CC(NC(=O)c1cn2cc(Cl)ccc2n1)c1ccc(F)cc1 (stereo not given)
790 | NC(=O)C1CCN(c2ncnc3c2c(-c2ccccc2)cn3-c2cccc(Cl)c2)CC1
744 | Cc1cc(C)c(-c2noc(C)n2)c(NC(=O)c2ccccc2Cl)n1
738 | CC(C)NC(=O)C1CCCN(c2nc3ncn(CC(=O)Nc4cccc(Cl)c4)c(=O)c3s2)C1 (stereo not given)
1140 | Cc1ccc2c(c1)OCC(=O)N2Cc1nc(-c2ccc(Cl)cc2)no1
842 | COc1cc(Br)c(CC2C(=O)Nc3ccccc32)cc1OC (stereo not given)
586 | Cc1cccc(NC(=O)N2CCC(CCN)CC2)c1
1010 | Cc1cccc(-n2c(=O)c3sccc3n(Cc3nc(-c4ccccc4)no3)c2=O)c1
930 | CCCN1C(=O)COc2ccc(-c3noc(CNC(=O)c4ccc(C)cc4)n3)cc21
721 | CCOC(=O)C(C)(C)Sc1nnc(NC(=O)C2CCN(S(C)(=O)=O)CC2)s1
676 | O=C(c1ccsc1)N1CCCCC1c1nncn1-c1ccccc1 (stereo not given)
717 | CCOC(=O)c1ccc(Nc2c(-c3cccc(O)c3)nc3cnccn23)cc1
745 | Cc1cc(Cl)ccc1S(=O)(=O)N1CCC(n2cnnc2C)CC1
931 | CCOC(=O)c1nc(NCc2ccc(F)cc2)c2ccccc2n1
966 | Cc1oc(-c2ccc(NC(=O)CC3CCCCC3)cc2)nc1Cn1cccn1
941 | COC(=O)c1[nH]c(C)c(C(=O)C(C)N(C(=O)c2ccccc2)C2CCCCC2)c1C (stereo not given)
668 | CC(C)CCN1CCC(N2CCN(S(=O)(=O)c3ccccc3Cl)CC2)C1=O (stereo not given)
746 | Cc1cc(C)cc(NS(=O)(=O)c2cc(-c3[nH]ncc3C(=O)N3CCCC3)oc2C)c1
652 | O=C(c1cccc(Nc2c(-c3ccccc3)nc3cnccn23)c1)N1CCOCC1
1250 | Cc1nc(-c2ccc(-c3noc(-c4cncc(Br)c4)n3)cc2)cs1
1270 | O=C(Nc1ccccc1Cl)c1c(O)c2cccnc2n(-c2cccc(F)c2)c1=O

RP-LC retention time [s] | Structure (SMILES)
972 | Cc1ccc(F)cc1NC(=O)Cn1nc2cc(-c3ccccc3)nc(C)n2c1=O
652 | CCOc1ccc(S(=O)(=O)NC2CC(=O)N(C3CC3)C2)cc1 (stereo not given)
878 | O=C(NCc1csc(-c2cccs2)n1)C1CCN(C(=O)CCC2CCCC2)CC1
604 | Cc1ccnc(N2CCCC(C(=O)NCC3CCN(Cc4cccc(Cl)c4)CC3)C2)n1 (stereo not given)
719 | Cc1ccn2c(Nc3ccc4c(c3)OCCO4)c(-c3ccc(O)cc3)nc2c1
762 | COC(=O)c1c(C)[nH]c(C(=O)N2CCC(CC(=O)NC(C)c3ccccc3)CC2)c1C (stereo not given)
570 | CC1CCN(c2ccc(-c3noc(CN4CCN(c5ccccn5)CC4)n3)cn2)CC1
974 | Cc1ccc(C)c(Cn2nc3c(S(=O)(=O)N4CCCCC4)cccn3c2=O)c1
1120 | O=C(Cc1cccs1)N1CCc2cc(-c3csc(C4CC4)n3)ccc21
1320 | CCc1ccccc1NC(=O)c1c(O)c2cccnc2n(-c2cccc(F)c2)c1=O
564 | O=C(O)Cn1c(-c2cccnc2)nc2ccccc21
1020 | Cc1ccc(-c2nnc(-c3nn(C)c4c3CN(S(=O)(=O)c3ccccc3C)CC4)o2)cc1
858 | CCC(C)NC(=O)CN1C(=O)CCc2cc(S(=O)(=O)N3CCC(C)CC3)ccc21 (stereo not given)
547 | O=C(Cc1ccc(NC(=O)c2ccncc2)cc1)NC1CC1
840 | COc1ccc(C(=O)NCc2ccccc2OC(F)(F)F)nn1
781 | CC1CS(=O)(=O)N(c2cccc(C(=O)N3CCCc4ccccc43)c2)C1=O (stereo not given)
1080 | COc1ccccc1-c1nc(-c2ccc(S(=O)(=O)N3CCCC3)cc2)no1
907 | COc1cc(OC)cc(C(=O)N2CCC3(CC2)N=C(c2ccc(Br)cc2)C(=O)N3)c1
825 | CCC(=O)Nc1ccc(C2(C(=O)NCC3CC3)CCCCC2)cc1
902 | Cc1ccc(NC(=O)Cn2c(C)cc(-c3nnc(C4CCC4)o3)c2C)cc1C

Structure (SMILES) | RP-LC retention time [s]
N[C@H]1C[C@@H]1c1ccccc1 | 578
